Experimental data taken from US20260008758A1, “LINEAR DIPEPTIDYL PEPTIDASE 1 INHIBITORS AND USES THEREOF” (Insmed Incorporated, priority 2024, published 2026).

Experiments:
[1] = target: T1, human DPP1 enzyme (Homo sapiens (Human), UniProt P53634); test: Human DPP1 enzyme IC50 assay; type: biochemical; details: recombinant human DPP1, H-Gly-Arg-AMC substrate 400 μM
Procedure: Test articles were applied to activated human DPP1 enzyme in Assay Buffer (25 mM MES pH 6.0, 50 mM NaCl, 5 mM DTT) in a total reaction volume of 125 μL. 25 μL of compound in Assay Buffer plus 5% DMSO was first added to 50 μL of activated human DPP1 enzyme at a concentration of 1 ng/μL and allowed to pre-incubate for 10 minutes at 37° C. after which 50 μL of 1000 μM H-Gly-Arg-AMC substrate (Bachem; St. Torrance, CA) was added, giving final substrate concentration of 400 μM and a final DMSO concentration of 1%. Substrate cleavage was measured for 90 minutes at 37° C., with fluorescence at Excitation/Emission 350/450 nm measured every 5 minutes. DPP1 concentration was interpolated based on its activity relative to a standard curve of activated human recombinant DPP1 enzyme. IC50 values for each compound were calculated via the XLFit (IDBS Version 5.3.1.3) Add-On to Microsoft Excel using the four parameter fit equation y={A+[(B-A)]/[1+((C/x)^D)]}, which appears as equation number 205 (4 Parameter Logistic Model or Sigmoidal Dose-Response Model) in XLFit. Default constraints were used for each Parameter.

[2] = target: T2, DPP1 in HL-60 cells (Homo sapiens (Human), UniProt P53634); test: DPP1 Cell IC50 assay; type: cell-based; details: H-Gly-Phe-AFC substrate, 60 min pre-incubation
Procedure: Media was changed every three to four days and cells were not allowed to exceed 1×10^6 cells per mL. Prior to assay, cells were collected by centrifugation at 500 rcf for 3 minutes, resuspended in PBS and counted. Cells were diluted in PBS to a concentration of 5×10^5 live cells per mL and transferred to black 96-well plates for assay, 60 μL per well. Test articles were diluted in PBS plus 0.5% DMSO, and 20 μL was added to each assay well. Compound was allowed to pre-incubate with cells with gentle shaking at 100 rpm for 60 minutes at 37° C. in a cell culture incubator maintained at 5% CO2, after which 20 μL of 500 μM H-Gly-Phe-AFC substrate (MP Biomedicals; Solon, OH) was added to each well. Plates were returned to the incubator with shaking at 100 rpm for 30 minutes, after which fluorescence was measured at Excitation/Emission 400/505 nm. % Inhibition was calculated from RFU values compared to control cell wells that received only PBS plus 0.5% DMSO. IC50 values for each compound were calculated via the XLFit (IDBS Version 5.3.1.3) Add-On to Microsoft Excel using the four parameter fit equation y=(A+((B-A)/(1+((C/x)^D)))), which appears as equation number 205 (4 Parameter Logistic Model or Sigmoidal Dose-Response Model) in XLFit.

[3] = target: T1, human DPP1 enzyme; test: Human DPP1 enzyme single-point percent inhibition testing (HL-60 lysate, H-Gly-Arg-AMC substrate); type: biochemical; details: read-out: human DPP1 enzyme % inhibition @ 10 nM, 10 nM compound, 400 μM H-Gly-Arg-AMC, 10 min pre-incubation at 37° C.
[4] = target: T2, DPP1 in HL-60 cells; test: DPP1 cell single-point percent inhibition testing (HL-60 cells, H-Gly-Phe-AFC substrate); type: cell-based; details: read-out: DPP1 cell % inhibition @ 5 nM, 5 nM compound, 100 μM H-Gly-Phe-AFC, 60 min pre-incubation at 37° C.

T1 sequence (P53634 25-134): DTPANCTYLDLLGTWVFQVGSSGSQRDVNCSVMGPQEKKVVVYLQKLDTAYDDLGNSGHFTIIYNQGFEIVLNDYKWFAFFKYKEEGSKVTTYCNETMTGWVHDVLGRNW
T1 sequence (P53634 231-394): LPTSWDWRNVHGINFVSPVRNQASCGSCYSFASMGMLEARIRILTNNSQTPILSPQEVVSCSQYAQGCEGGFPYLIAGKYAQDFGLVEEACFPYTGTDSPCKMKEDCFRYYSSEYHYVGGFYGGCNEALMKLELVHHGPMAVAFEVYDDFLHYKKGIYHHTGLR
T1 sequence (P53634 395-463): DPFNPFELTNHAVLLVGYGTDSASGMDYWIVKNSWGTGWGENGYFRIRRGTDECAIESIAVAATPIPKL
T2 sequence (P53634 25-134): as the sequence (P53634 25-134) above
T2 sequence (P53634 231-394): as the sequence (P53634 231-394) above
T2 sequence (P53634 395-463): as the sequence (P53634 395-463) above

Cn1c(=O)oc2ccc(-c3ccc(C[C@@H](C#N)NC(=O)[C@@H](N)C4CCCO4)cc3)cc21 (stereo in doubt) [Compound 210, (2S)-2-amino-N-[(1S)-1-cyano-2-[4-(3-methyl-2-oxo-1,3-benzoxazol-5-yl)phenyl]ethyl]-2-[(2S)-oxolan-2-yl]acetamide]
IC50 [1]: 5 to 15 nM
IC50 [2]: ≥ 2.5 nM

Cn1c(=O)oc2ccc(-c3ccc(C[C@@H](C#N)NC(=O)[C@@H](N)C4CCCO4)cc3)cc21 (stereo in doubt) [Compound 212, (2S)-2-amino-N-[(1S)-1-cyano-2-[4-(3-methyl-2-oxo-1,3-benzoxazol-5-yl)phenyl]ethyl]-2-[(2R)-oxolan-2-yl]acetamide]
IC50 [1]: ≤ 5 nM
IC50 [2]: 1 to 2.5 nM

Cn1c(=O)oc2ccc(-c3ccc(CC(C#N)NC(=O)C4(N)CCCC45CC5)c(F)c3)cc21 (stereo in doubt) [Compound 273A, (4S)-4-amino-N-[(1S)-1-cyano-2-[2-fluoro-4-(3-methyl-2-oxo-1,3-benzoxazol-5-yl)phenyl]ethyl]spiro[2.4]heptane-4-carboxamide]
IC50 [1]: ≥ 15 nM
IC50 [2]: ≥ 2.5 nM

C[C@@H](N)[C@@H](O)C(=O)N[C@H](C#N)Cc1ccc(-c2ccc3oc(=O)n(C)c3c2)cc1 [Compound 102B]
IC50 [1]: ≥ 15 nM
IC50 [2]: ≥ 2.5 nM

CO[C@@H](CN)C(=O)N[C@H](C#N)Cc1ccc(-c2ccc3oc(=O)n(C)c3c2)cc1 [Compound 103, (2S)-3-amino-N-[(1S)-1-cyano-2-[4-(3-methyl-2-oxo-1,3-benzoxazol-5-yl)phenyl]ethyl]-2-methoxypropanamide]
IC50 [1]: ≥ 15 nM
IC50 [2]: ≥ 2.5 nM

CO[C@@H](CN(C)C)C(=O)N[C@H](C#N)Cc1ccc(-c2ccc3oc(=O)n(C)c3c2)cc1 [Compound 105, (2S)—N-[(1S)-1-cyano-2-[4-(3-methyl-2-oxo-1,3-benzoxazol-5-yl)phenyl]ethyl]-3-(dimethylamino)-2-methoxypropanamide]
IC50 [1]: ≥ 15 nM
IC50 [2]: 1 to 2.5 nM

CNC[C@H](OC)C(=O)N[C@H](C#N)Cc1ccc(-c2ccc3oc(=O)n(C)c3c2)cc1 [Compound 109, (S)—N—((S)-1-cyano-2-(4-(3-methyl-2-oxo-2,3-dihydrobenzo[d]oxazol-5-yl)phenyl)ethyl)-2-methoxy-3-(methylamino)propanamide]
IC50 [1]: ≥ 15 nM
IC50 [2]: ≥ 2.5 nM

Cn1c(=O)oc2ccc(-c3ccc(C[C@@H](C#N)NC(=O)[C@@H](O)CN)cc3)cc21 [Compound 110, (2S)-3-amino-N-[(1S)-1-cyano-2-[4-(3-methyl-2-oxo-1,3-benzoxazol-5-yl)phenyl]ethyl]-2-hydroxypropanamide]
IC50 [1]: ≥ 15 nM
IC50 [2]: ≥ 2.5 nM

Cn1c(=O)oc2ccc(-c3ccc(C[C@@H](C#N)NC(=O)CC(N)C4CCCCC4)cc3)cc21 (stereo partly drawn) [Compound 190, 3-amino-N-[(1S)-1-cyano-2-[4-(3-methyl-2-oxo-2,3-dihydro-1,3-benzoxazol-5-yl)phenyl]ethyl]-3-cyclohexylpropanamide]
IC50 [2]: ≥ 2.5 nM

CN(C)C[C@](C)(O)C(=O)N[C@H](C#N)Cc1ccc(-c2ccc(S(=O)(=O)N3CCC3)cc2)cc1 [Compound 415]
inhibition at 0.01 µM [3]: ≤ 40%
inhibition at 0.005 µM [4]: ≤ 76.5%

CN(C)C[C@](C)(O)C(=O)N[C@H](C#N)Cc1ccc(-c2ccc3cnn(C)c3c2)cc1F [Compound 416]
inhibition at 0.01 µM [3]: 40 to 66.7%
inhibition at 0.005 µM [4]: 76.5 to 93.9%

CN(C)C[C@](C)(O)C(=O)N[C@H](C#N)Cc1ccc(-c2ccc3nnn(C)c3c2)cc1F [Compound 417]
inhibition at 0.01 µM [3]: ≥ 66.7%
inhibition at 0.005 µM [4]: 76.5 to 93.9%

CN(C)C[C@](C)(O)C(=O)N[C@H](C#N)Cc1ccc(-c2cnc3c(n2)CCCC3)cc1F [Compound 418]
inhibition at 0.01 µM [3]: 40 to 66.7%
inhibition at 0.005 µM [4]: ≤ 76.5%

CN(C)C[C@](C)(O)C(=O)N[C@H](C#N)Cc1ccc(-c2ccc(S(=O)(=O)N3CCC3)cc2)cc1F [Compound 419]
inhibition at 0.01 µM [3]: ≤ 40%
inhibition at 0.005 µM [4]: ≤ 76.5%

CN(C)C[C@](C)(O)C(=O)N[C@H](C#N)Cc1cc2c(cc1F)-c1ccc(F)cc1CO2 [Compound 420]
inhibition at 0.01 µM [3]: ≤ 40%
inhibition at 0.005 µM [4]: ≤ 76.5%
